Measured values: PubChem BioAssay AID342 (DTP/NCI, 2004)
Several values for one entry are separate records, joined by “and”; a condition that tells them apart may be missing. Identical values can stand only once.

Tested on: Swiss mice, Sarcoma 180 sc, mean tumor weight T/C
Experiment: NCI In Vivo Anticancer Drug Screen. Data for tumor model Sarcoma 180 (subcutaneous) in Swiss mice
Conditions: endpoint: mean tumor weight, higher = larger tumour
How it was run: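 Mice bearing transplanted tumors were treated with compound, and survival or tumor size was measured. Values are expressed as the treated-group measurement (T) divided by the vehicle-treated control measurement (C).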

For `O=CNC(Cc1cccc(N(CCCl)CCCl)c1)C(=O)O` (stereo not given), the T/C (dose: 2.5 mg/kg/injection, schedule: Q#A X014 (ip), vehicle: methylcellulose (MC)) was 45 % of control, the T/C (dose: 4.5 mg/kg/injection, schedule: Q#A X014 (ip), vehicle: methylcellulose (MC)) was 21 % of control and 25 % of control and the T/C (dose: 5.0 mg/kg/injection, schedule: Q#A X014 (ip), vehicle: methylcellulose (MC)) was 52 % of control. For the same compound, the T/C (dose: 7.5 mg/kg/injection, schedule: Q#A X014 (ip), vehicle: methylcellulose (MC)) was 18 % of control and the T/C (dose: 15.0 mg/kg/injection, schedule: Q#A X014 (ip), vehicle: methylcellulose (MC)) was 20 % of control.
In the case of `O=C(NP(=O)(N1CC1)N1CC1)OCc1ccccc1`, the T/C (dose: 1.5 mg/kg/injection, schedule: Q#A X014 (ip), vehicle: saline) is reported as 82 % of control, the T/C (dose: 3.0 mg/kg/injection, schedule: Q#A X014 (ip), vehicle: saline) is reported as 81 % of control and the T/C (dose: 6.0 mg/kg/injection, schedule: Q#A X014 (ip), vehicle: saline) is reported as 36 % of control. The T/C (dose: 12.0 mg/kg/injection, schedule: Q#A X014 (ip), vehicle: saline) was 1 % of control.
In the case of `C[C@]12CCC(=O)C=C1CC[C@@H]1[C@@H]2[C@@H](O)C[C@@]2(C)[C@H]1CC[C@]2(O)C(=O)COC(=O)c1ccc([N+](=O)[O-])cc1Cl`, the T/C (dose: 12.5 mg/kg/injection, schedule: Q#A X014 (sc), vehicle: steriod suspending solution) is reported as 79 % of control, the T/C (dose: 25.0 mg/kg/injection, schedule: Q#A X014 (sc), vehicle: steriod suspending solution) is reported as 67 % of control and the T/C (dose: 50.0 mg/kg/injection, schedule: Q#A X014 (sc), vehicle: steriod suspending solution) is reported as 38 % of control. The T/C (dose: 100.0 mg/kg/injection, schedule: Q#A X014 (sc), vehicle: steriod suspending solution) was 32 % of control.
In the case of `Cc1ccc(S(=O)(=O)N=S2CCCC2)cc1`, the T/C (dose: 111.0 mg/kg/injection, schedule: Q#A X014 (ip), vehicle: water) is reported as 90 % of control, the T/C (dose: 166.5 mg/kg/injection, schedule: Q#A X014 (ip), vehicle: water) is reported as 107 % of control and the T/C (dose: 250.0 mg/kg/injection, schedule: Q#A X014 (ip), vehicle: water) is reported as 91 % of control. For the same compound, the T/C (dose: 375.0 mg/kg/injection, schedule: Q#A X014 (ip), vehicle: water) was 66 % of control.
In the case of `Cc1cc2nc(Cc3nc4cc(C)c(C)cc4[nH]3)[nH]c2cc1C`, the T/C (dose: 20.0 mg/kg/injection, schedule: Q01DX007 (ip), vehicle: carboxymethylcellulose (CMC)) is reported as 86 % of control, the T/C (dose: 40.0 mg/kg/injection, schedule: Q01DX007 (ip), vehicle: carboxymethylcellulose (CMC)) is reported as 85 % of control and the T/C (dose: 60.0 mg/kg/injection, schedule: Q01DX007 (ip), vehicle: carboxymethylcellulose (CMC)) is reported as 80 % of control and 81 % of control. For the same compound, the T/C (dose: 80.0 mg/kg/injection, schedule: Q01DX007 (ip), vehicle: carboxymethylcellulose (CMC)) was 102 % of control, the T/C (dose: 90.0 mg/kg/injection, schedule: Q01DX007 (ip), vehicle: carboxymethylcellulose (CMC)) was 67 % of control and the T/C (dose: 120.0 mg/kg/injection, schedule: Q01DX007 (ip), vehicle: carboxymethylcellulose (CMC)) was 122 % of control. For the same compound, the T/C (dose: 160.0 mg/kg/injection, schedule: Q01DX007 (ip), vehicle: carboxymethylcellulose (CMC)) was 77 % of control, the T/C (dose: 180.0 mg/kg/injection, schedule: Q01DX007 (ip), vehicle: carboxymethylcellulose (CMC)) was 89 % of control and the T/C (dose: 210.0 mg/kg/injection, schedule: Q01DX007 (ip), vehicle: carboxymethylcellulose (CMC)) was 61 % of control. For the same compound, the T/C (dose: 270.0 mg/kg/injection, schedule: Q01DX007 (ip), vehicle: carboxymethylcellulose (CMC)) was 77 % of control, the T/C (dose: 320.0 mg/kg/injection, schedule: Q01DX007 (ip), vehicle: carboxymethylcellulose (CMC)) was 90 % of control and 100 % of control and the T/C (dose: 478.0 mg/kg/injection, schedule: Q01DX007 (ip), vehicle: carboxymethylcellulose (CMC)) was 57 % of control. The T/C (dose: 717.0 mg/kg/injection, schedule: Q01DX007 (ip), vehicle: carboxymethylcellulose (CMC)) was 65 % of control.
For `COC(=O)c1[nH]c(=O)[nH]c(=O)c1F`, the T/C (dose: 4.5 mg/kg/injection, schedule: Q01DX007 (ip), vehicle: carboxymethylcellulose (CMC)) was 78 % of control, the T/C (dose: 9.0 mg/kg/injection, schedule: Q01DX007 (ip), vehicle: carboxymethylcellulose (CMC)) was 44 % of control and 55 % of control and the T/C (dose: 14.0 mg/kg/injection, schedule: Q01DX007 (ip), vehicle: carboxymethylcellulose (CMC)) was 39 % of control and 51 % of control and 54 % of control. The T/C (dose: 21.0 mg/kg/injection, schedule: Q01DX007 (ip), vehicle: carboxymethylcellulose (CMC)) was 26 % of control, the T/C (dose: 31.0 mg/kg/injection, schedule: Q01DX007 (ip), vehicle: carboxymethylcellulose (CMC)) was 10 % of control and 14 % of control and the T/C (dose: 47.0 mg/kg/injection, schedule: Q01DX007 (ip), vehicle: carboxymethylcellulose (CMC)) was 5 % of control and 7 % of control and 12 % of control.
For `C[C@]12CCC(=O)C=C1CC[C@H]1[C@@H]3CC[C@](O)(C(=O)CF)[C@@]3(C)C[C@H](O)[C@@]12F`, the T/C (dose: 20.5 mg/kg/injection, schedule: Q#A X014 (sc), vehicle: steriod suspending solution) was 54 % of control, the T/C (dose: 31.0 mg/kg/injection, schedule: Q#A X014 (sc), vehicle: steriod suspending solution) was 62 % of control and the T/C (dose: 46.5 mg/kg/injection, schedule: Q#A X014 (sc), vehicle: steriod suspending solution) was 48 % of control.
`CCOC(=O)C(N)Cc1ccc(N(CCCl)CCCl)cc1` (stereo not given) was tested, and the T/C (dose: 1.4 mg/kg/injection, schedule: Q01DX007 (ip), vehicle: saline) was 41 % of control, the T/C (dose: 2.7 mg/kg/injection, schedule: Q01DX007 (ip), vehicle: saline) was 93 % of control and the T/C (dose: 4.1 mg/kg/injection, schedule: Q01DX007 (ip), vehicle: saline) was 9 % of control. The T/C (dose: 5.0 mg/kg/injection, schedule: Q01DX007 (ip), vehicle: carboxymethylcellulose (CMC)) was 90 % of control, the T/C (dose: 5.5 mg/kg/injection, schedule: Q01DX007 (ip), vehicle: saline) was 32 % of control and 49 % of control and the T/C (dose: 8.0 mg/kg/injection, schedule: Q01DX007 (ip), vehicle: carboxymethylcellulose (CMC)) was 83 % of control. For the same compound, the T/C (dose: 8.3 mg/kg/injection, schedule: Q01DX007 (ip), vehicle: saline) was 15 % of control and 20 % of control, the T/C (dose: 12.0 mg/kg/injection, schedule: Q01DX007 (ip), vehicle: carboxymethylcellulose (CMC)) was 59 % of control and the T/C (dose: 12.5 mg/kg/injection, schedule: Q01DX007 (ip), vehicle: saline) was 7 % of control. For the same compound, the T/C (dose: 18.0 mg/kg/injection, schedule: Q01DX007 (ip), vehicle: carboxymethylcellulose (CMC)) was 29 % of control and 42 % of control and the T/C (dose: 27.0 mg/kg/injection, schedule: Q01DX007 (ip), vehicle: carboxymethylcellulose (CMC)) was 15 % of control.
In the case of `CCCS/C(N)=N/N=C/c1ccc([N+](=O)[O-])o1`, the T/C (dose: 13.5 mg/kg/injection, schedule: Q#A X014 (ip), vehicle: water) is reported as 81 % of control, the T/C (dose: 20.0 mg/kg/injection, schedule: Q#A X014 (ip), vehicle: water) is reported as 53 % of control and the T/C (dose: 27.0 mg/kg/injection, schedule: Q01DX007 (ip), vehicle: other) is reported as 67 % of control. The T/C (dose: 27.0 mg/kg/injection, schedule: Q01DX007 (ip), vehicle: water) was 61 % of control, the T/C (dose: 30.0 mg/kg/injection, schedule: Q#A X014 (ip), vehicle: water) was 34 % of control and the T/C (dose: 40.0 mg/kg/injection, schedule: Q01DX007 (ip), vehicle: water) was 45 % of control. For the same compound, the T/C (dose: 60.0 mg/kg/injection, schedule: Q01DX007 (ip), vehicle: water) was 59 % of control.
`CCN(CC)CCOC(=O)c1ccc(N)cc1` was tested, and the T/C (dose: 75.0 mg/kg/injection, schedule: Q#A X014 (ip), vehicle: saline) was 92 % of control.
For `CCC1OCCN1C(C)C` (stereo not given), the T/C (dose: 20.0 mg/kg/injection, schedule: Q01DX007 (ip), vehicle: other) was 80 % of control, the T/C (dose: 33.0 mg/kg/injection, schedule: Q01DX007 (ip), vehicle: other) was 75 % of control and the T/C (dose: 55.5 mg/kg/injection, schedule: Q01DX007 (ip), vehicle: saline) was 79 % of control. The T/C (dose: 56.0 mg/kg/injection, schedule: Q01DX007 (ip), vehicle: other) was 63 % of control, the T/C (dose: 83.3 mg/kg/injection, schedule: Q01DX007 (ip), vehicle: saline) was 43 % of control and the T/C (dose: 84.0 mg/kg/injection, schedule: Q01DX007 (ip), vehicle: other) was 49 % of control. The T/C (dose: 125.0 mg/kg/injection, schedule: Q01DX007 (ip), vehicle: saline) was 21 % of control.
In the case of `CC(=O)OC1(C)CC(C)C(=O)C(C(O)CC2CC(=O)NC(=O)C2)C1` (stereo not given), the T/C (dose: 1:40.0 dilution, schedule: Q01DX007 (ip), vehicle: water) is reported as 122 % of control, the T/C (dose: 1:2000.0 dilution, schedule: Q01DX007 (ip), vehicle: water) is reported as 79 % of control and 92 % of control and the T/C (dose: 1:4000.0 dilution, schedule: Q01DX007 (ip), vehicle: water) is reported as 49 % of control.
With `NCCc1ccccc1` the T/C (dose: 31.3 mg/kg/injection, schedule: Q01DX007 (ip), vehicle: saline) was 83 % of control and the T/C (dose: 62.5 mg/kg/injection, schedule: Q01DX007 (ip), vehicle: saline) was 32 % of control.
